According to patent publication US5905068A, “Retroviral protease inhibiting compounds” (Abbott Laboratories, priority 1996, dated 1999):

Tests used:
HIVIIIB = experiment: Antiviral Activity: anti-HIV activity in MT4 cells infected with HIVIIIB (MTT); format: cell-based; conditions: Human immunodeficiency virus 1, 120 h, MOI 0.003, 5 days, n=four duplicate determinations
Experimental: (§1) The anti-HIV activity of the compound of the invention was determined in MF4 cells according to the following procedure: MT4 cells were infected with cell-free supernatant of HIVIIIB (previously frozen with known 50% tissue culture infectious dose (TCID50) at 0.003 multiplicity of infection (MOI)) for one hour. After one hour infection, cells were washed twice to remove residual viruses, resuspended in culture media and seeded into 96-well tissue culture plates at 1×10^4 cells per well with various half-log dilutions of compounds. Uninfected cells were included a toxicity and cell controls. RPMI 1640 media (GIBCO) with 10% fetal bovine serum was used as culture media. Various concentrations (50%, 25% and 12.5%) of human serum (SIGMA) were added to culture media resulting in final concentrations of 60%, 35% and 22.5% total serum. All assay plates were incubated in a 37° C. incubator for 5 days. The compound 3-[4,5-dimethylthiozol-2-yl]-2,5-diphenyltetrazolium bromide (MTT, SIGMA, 5 mg .mL stock in PBS) was then added to all wells at 25 μL per well and incubated for 4 hours. SDS (20%) with 0.02N HCl in water was added at 50 μL per well to lyse cells. Plates were incubated overnight for complete cell lysis and then read on a microtiter plate reader at 570/650 nm wavelengths to determine cell optical density (O.D.). Raw data was analysed for percent inhibition by the following formula: [formula]
The 50% effective concentration (EC50) was calculated by the median effect equation (Chou, 1975, Proc. Int. Cong. Pharmacol. 6th p. 619) to determine the efficacy of compound. The 50% cytotoxicity concentration (CTC50) was calculated using uninfected MT4 cells
Under these conditions, the data of Table 2 was obtained (n=four duplicate determinations).

[1] = Cytotoxicity in uninfected MT4 cells (MTT); format: cell-based; conditions: human, 5 days, n=four duplicate determinations, read-out: CTC50 (50% cytotoxicity concentration)
Experimental: as §1, with “RPMI 1640 media (GIBCO) with 10% fetal bovine serum was used as culture media. Various concentrations (50%, 25% and 12.5%) of human serum (SIGMA) were added to culture media resulting in final concentrations of 60%, 35% and 22.5% total serum.” left out, “The compound 3-[4,5-dimethylthiozol-2-yl]-2,5-diphenyltetrazolium bromide (MTT, SIGMA, 5 mg .mL stock in PBS) was then added to all wells at 25 μL per well and incubated for 4 hours.” left out
The 50% cytotoxicity concentration (CTC50) was calculated using uninfected MT4 cells

HIV-1 protease = HIV-1 protease (Human immunodeficiency virus type 1 group M subtype B, UniProt P04585); experiment: Fluorogenic Assay for Screening Inhibitors of HIV Protease; conditions: pH 4.5

| Compound | EC50 (HIVIIIB) | inhibition at 0.0005 µM (HIV-1 protease) | inhibition at 0.0011 µM (HIV-1 protease) | CC50 at 120 h [1] | inhibition at 0.0014 µM (HIV-1 protease) |
| --- | --- | --- | --- | --- | --- |
| O=C(N[C@@H](Cc1ccccc1)C[C@H](O)[C@H](Cc1ccccc1)NC(=O)OC1COC2OCCC12)OC1COC2OCCC12 (stereo partly drawn) [Example 41, (2S,3S,5S)-2,5-((3R,3aS,6aR)-bis-Tetrahydrofuran-3-yl-oxycarbonyl)amino-1,6-diphenyl-3-hydroxyhexane] | 43 nM | 53% | – | > 100000 nM | – |
| CC(C)[C@H](NC(=O)N(C)Cc1cncs1)C(=O)N[C@@H](Cc1ccccc1)C[C@H](O)[C@H](Cc1ccccc1)NC(=O)O[C@H]1CO[C@H]2OCC[C@H]21 [Example 45, (2S,3S,5S)-5-(N-(N-((N-Methyl-N-((5-thiazolyl)methyl)amino)carbonyl)-L-valinyl)amino)-2-((3R,3aS,6aR)-bis-tetrahydrofuran-3-yl-oxycarbonyl)amino-1,6-diphenyl-3-hydroxyhexane] | 450 nM | 56% | – | > 100000 nM | – |
| O=C(N[C@@H](Cc1ccccc1)[C@@H](O)C[C@H](Cc1ccccc1)NC(=O)OC1COC2OCCC12)OCc1cncs1 (stereo partly drawn) [Example 35, (2S,3S,5S)-2-((5-Thiazolyl)methoxycarbonyl)amino-5-((3R,3aS,6aR), (3S,3aR,6aS)-bis-tetrahydrofuran-3-yl-oxycarbonyl)amino-1,6-diphenyl-3-hydroxyhexane] | 428 nM | 52% | – | > 100000 nM | – |
| CC(C)c1nc(CN(C)C(=O)N[C@@H](C(=O)N[C@@H](Cc2ccccc2)C[C@H](O)[C@H](Cc2ccccc2)NC(=O)OC2COC3OCCC23)C(C)C)cs1 (stereo partly drawn) [Example 39, (2S,3S,5S)-5-(N-(N-((N-Methyl-N-((2-isopropyl-4-thiazolyl)methyl)amino)carbonyl)-D-valinyl)amino)-2-((3R,3aS,6aR), (3S,3aR,6aS)-bis-tetrahydrofuran-3-yl-oxycarbonyl)amino-1,6-diphenyl-3-hydroxyhexane] | 55 nM | 66% | – | 56200 nM | – |
| Cc1nc(CN(C)C(=O)N[C@H](C(=O)N[C@@H](Cc2ccccc2)C[C@H](O)[C@H](Cc2ccccc2)NC(=O)O[C@H]2CO[C@H]3OCC[C@H]32)C(C)C)cs1 [Example 49, (2S,3S,5S)-5-(N-(N-((N-Methyl-N-((2-methyl-4-thiazolyl)methyl)amino)carbonyl)-L-valinyl)amino)-2-((3R,3aS,6aR)-bis-tetrahydrofuran-3-yl-oxycarbonyl)amino-1,6-diphenyl-3-hydroxyhexane] | 42 nM | 74% | – | > 100000 nM | – |
| CC(=O)Oc1ccc(C(=O)N[C@@H](Cc2ccccc2)C[C@H](O)[C@H](Cc2ccccc2)NC(=O)O[C@H]2CO[C@H]3OCC[C@H]32)cc1 [Example 54, (2S,3S,5S)-5-(4-Acetoxy-benzoyl)amino-2-((3R,3aS,6aR)-bis-tetrahydrofuran-3-yl-oxycarbonyl)amino-1,6-diphenyl-3-hydroxyhexane] | 145 nM | – | – | > 100000 nM | 50% |
| Cc1cc2[nH]cnc2c(C)c1OCC(=O)N[C@@H](Cc1ccccc1)C[C@H](O)[C@H](Cc1ccccc1)NC(=O)O[C@H]1CO[C@H]2OCC[C@H]21 [Example 24, (2S,3S,5S)-5-(4,6-Dimethyl-benzimidazol-5-yloxy-acetyl)amino-2-((3R,3aS,6aR)-bis-tetrahydrofuran-3-yl-oxycarbonyl)amino-1,6-diphenyl-3-hydroxyhexane] | 114 nM | 80% | – | > 100000 nM | – |
| O=C(N[C@@H](Cc1ccccc1)[C@@H](O)C[C@H](Cc1ccccc1)NC(=O)O[C@@H]1CO[C@@H]2OCC[C@@H]21)O[C@H]1CO[C@H]2OCC[C@H]21 [Example 22, (2S,3S,5S)-2-((3R,3aS,6aR)-bis-Tetrahydrofuran-3-yl-oxycarbonyl)amino-5-((3S,3aR,6aS)-bis-Tetrahydrofuran-3-yl-oxycarbonyl)amino-1,6-diphenyl-3-hydroxyhexane] | 107 nM | 73% | – | > 100000 nM | – |
| CC(C)[C@@H](NC(=O)OCc1cncs1)C(=O)N[C@@H](Cc1ccccc1)C[C@H](O)[C@H](Cc1ccccc1)NC(=O)O[C@H]1CO[C@H]2OCC[C@H]21 [Example 43, (2S,3S,5S)-5-(N-(N-((5-Thiazolyl)methoxycarbonyl)-D-valinyl)amino)-2-((3R,3aS,6aR)-bis-tetrahydrofuran-3-yl-oxycarbonyl)amino-1,6-diphenyl-3-hydroxyhexane] | 270 nM | 42% | – | > 100000 nM | – |
| O=C(N[C@@H](Cc1ccccc1)C[C@H](O)[C@H](Cc1ccccc1)NC(=O)O[C@H]1CO[C@H]2OCC[C@H]21)O[C@H]1CO[C@H]2OCC[C@H]21 [Example 20, (2S,3S,5S)-2,5-Di-((3R,3aS,6aR)-bis-Tetrahydrofuran-3-yl-oxycarbonyl)amino-1,6-diphenyl-3-hydroxyhexane] | 34 nM | 64% | – | > 100000 nM | – |
| Cc1cc(F)cc(C)c1OCC(=O)N[C@@H](Cc1ccccc1)C[C@H](O)[C@H](Cc1ccccc1)NC(=O)O[C@H]1CO[C@H]2OCC[C@H]21 [Example 14, (2S,3S,5S)-5-(2,6-Dimethyl-4-fluoro-phenoxyacetyl)amino-2-((3R,3aS,6aR)-bis-tetrahydrofuran-3-yl-oxycarbonyl)amino-1,6-diphenyl-3-hydroxyhexane] | 268 nM | 69% | – | 64000 nM | – |

Further lines, with some results ahead:

| EC50 (HIVIIIB) | inhibition at 0.0005 µM (HIV-1 protease) | inhibition at 0.0011 µM (HIV-1 protease) | Compound | CC50 at 120 h [1] | inhibition at 0.0014 µM (HIV-1 protease) |
| --- | --- | --- | --- | --- | --- |
| 72 nM | 69% | – | Cc1nc(CN(C)C(=O)N[C@H](C(=O)N[C@@H](Cc2ccccc2)C[C@H](O)[C@H](Cc2ccccc2)NC(=O)OC2COC3OCCC23)C(C)C)cs1 (stereo partly drawn) [Example 52, (2S,3S,5S)-5-(N-(N-((N-Methyl-N-((2-methyl-4-thiazolyl)methyl)amino)carbonyl)-L-valinyl)amino)-2-((3R,3aS,6aR),(3S,3aR,6aS)-bis-tetrahydrofuran-3-yl-oxycarbonyl)amino-1,6-diphenyl-3-hydroxyhexane] | > 100000 nM | – |
| 7 nM | 89% | – | Cc1ccc(O)c(C)c1OCC(=O)N[C@@H](Cc1ccccc1)C[C@H](O)[C@H](Cc1ccccc1)NC(=O)O[C@H]1CO[C@H]2OCC[C@H]21 [Example 74, (2S,3S,5S)-5-(2,6-Dimethyl-3-hydroxy-phenoxyacetyl)amino-2-((3R,3aS,6aR)-bis-tetrahydrofuran-3-yl-oxycarbonyl)amino-1,6-diphenyl-3-hydroxyhexane] | 50500 nM | – |
| 12 nM | 83% | – | CC(C)c1nc(CN(C)C(=O)NC(C(=O)NC(Cc2ccccc2)CC(O)C(Cc2ccccc2)NC(=O)OC2COC3OCCC23)C(C)C)cs1 [Example 51, (2S,3S,5S)-5-(N-(N-((N-Methyl-N-((2-isopropyl-4-thiazolyl)methyl)amino)carbonyl)-D-valinyl)amino)-2-((3R,3aS,6aR)-bis-tetrahydrofuran-3-yl-oxycarbonyl)amino-1,6-diphenyl-3-hydroxyhexane] | > 100000 nM | – |
| 2610 nM | – | 50% | O=C(N[C@@H](Cc1ccccc1)[C@@H](O)C[C@H](Cc1ccccc1)NC(=O)c1cccc(O)c1)O[C@@H]1CO[C@@H]2OCC[C@@H]21 [Example 58, (2S,3S,5S)-5-(3-Hydroxy-benzoyl)amino-2-((3S,3aR,6aS)-bis-tetrahydrofuran-3-yl-oxycarbonyl)amino-1,6-diphenyl-3-hydroxyhexane] | > 100000 nM | – |
| 32 nM | 68% | – | CC(C)c1nc(CN(C)C(=O)N[C@H](C(=O)N[C@@H](Cc2ccccc2)C[C@H](O)[C@H](Cc2ccccc2)NC(=O)O[C@H]2CCOC2)C(C)C)cs1 [Example 50, (2S,3S,5S)-5-(N-(N-((N-Methyl-N-((2-isopropyl-4-thiazolyl)methyl)amino)carbonyl)-L-valinyl)amino)-2-(3S-tetrahydrofuran-3-yl-oxycarbonyl)amino-1,6-diphenyl-3-hydroxyhexane] | 56200 nM | – |
